According to patent publication US8367584B2, “Naphthalene isoxazoline compounds for control of invertebrate pests” (E.I. du Pont de Nemours and Company, priority 2007, dated 2013):

How the values were obtained:
Format in all cases: in vivo
[1] = system: diamondback moth (Plutella xylostella); test: Test A: control of diamondback moth on radish plant, foliar spray; settings: sprayed at 50 ppm; neonate larvae on radish plant; held 6 days at 25° C.; three replicates
Description: For evaluating control of diamondback moth (Plutella xylostella), the test unit consisted of a small open container with a 12-14-day-old radish plant inside. This was pre-infested with about 50 neonate larvae that were dispensed into the test unit via corn-cob grits using a bazooka inoculator. The larvae moved onto the test plant after being dispensed into the test unit.
(§1) Test compounds were formulated using a solution containing 10% acetone, 90% water and 300 ppm X^77™ Spreader Lo-Foam Formula non-ionic surfactant containing alkylarylpolyoxyethylene, free fatty acids, glycols and isopropanol (Loveland Industries, Inc. Greeley, Colo., USA). The formulated compounds were applied in 1 mL of liquid through a SUJ2 atomizer nozzle with 1/8 JJ custom body (Spraying Systems Co. Wheaton, Ill., USA) positioned 1.27 cm (0.5 inches) above the top of each test unit. All experimental compounds in this test were sprayed at 50 ppm, and the test was replicated three times. After spraying of the formulated test compound, each test unit was allowed to dry for 1 h and then a black, screened cap was placed on top. The test units were held for 6 days in a growth chamber at 25° C. and 70% relative humidity. Plant feeding damage was then visually assessed based on foliage consumed and a pest mortality rating was also counted and calculated for each test unit.

[2] = system: fall armyworm (Spodoptera frugiperda); test: Test B: control of fall armyworm on corn (maize) plant, foliar spray; settings: sprayed at 50 ppm; 1-day-old larvae on corn (maize) plant; three replicates
Protocol: as §1
For evaluating control of fall armyworm (Spodoptera frugiperda), the test unit consisted of a small open container with a 4-5-day-old corn (maize) plant inside. This was pre-infested (using a core sampler) with 10-15 1-day-old larvae on a piece of insect diet. Test compounds were formulated and sprayed at 50 ppm as described for Test A, and the test was replicated three times. After spraying, the test units were maintained in a growth chamber and then the control efficacy was rated for each test unit as described for Test A.

[3] = system: potato leafhopper (Empoasca fabae); test: Test C: control of potato leafhopper through contact and/or systemic means on Soleil bean plant; settings: 144 h, sprayed at 250 ppm, adults on Soleil bean plant, held 6 days at 19-21° C., three replicates, read-out: control efficacy: mortality
Protocol: as §1
For evaluating control of potato leafhopper (Empoasca fabae) through contact and/or systemic means, the test unit consisted of a small open container with a 5-6-day-old Soleil bean plant (primary leaves emerged) inside. White sand was added to the top of the soil and one of the primary leaves was excised prior to application. Test compounds were formulated and sprayed as described for Test A. All experimental compounds in these tests were sprayed at 250 ppm, and the test was replicated three times. After spraying, the test units were allowed to dry for 1 hour before they were post-infested with 5 potato leafhoppers (18-21-day-old adults). A black, screened cap was placed on the top of the cylinder. The test units were held for 6 days in a growth chamber at 19-21° C. and 50-70% relative humidity. The control efficacy of each test unit was then visually assessed by the insect mortality.

[4] = system: green peach aphid (Myzus persicae); test: Test E: control of green peach aphid through contact and/or systemic means on radish plant; settings: 144 h, sprayed at 250 ppm, aphids on radish plant, held 6 days at 19-21° C., three replicates, read-out: control efficacy: mortality
Protocol: Test compounds were formulated using a solution containing 10% acetone, 90% water and 300 ppm X^77™ Spreader Lo-Foam Formula non-ionic surfactant containing alkylarylpolyoxyethylene, free fatty acids, glycols and isopropanol (Loveland Industries, Inc. Greeley, Colo., USA). The formulated compounds were applied in 1 mL of liquid through a SUJ2 atomizer nozzle with 1/8 JJ custom body (Spraying Systems Co. Wheaton, Ill., USA) positioned 1.27 cm (0.5 inches) above the top of each test unit. All experimental compounds in this test were sprayed at 50 ppm, and the test was replicated three times. After spraying of the formulated test compound, each test unit was allowed to dry for 1 h and then a black, screened cap was placed on top. The test units were held for 6 days in a growth chamber at 25° C. and 70% relative humidity. Plant feeding damage was then visually assessed based on foliage consumed and a pest mortality rating was also counted and calculated for each test unit. […]
Test compounds were formulated and sprayed as described for Test A. All experimental compounds in these tests were sprayed at 250 ppm, and the test was replicated three times. […] Each test unit was then visually assessed for insect mortality.

[5] = system: silverleaf whitefly (Bemisia tabaci); test: Test F: control of silverleaf whitefly on cotton plant; settings: 144 h, sprayed at 250 ppm, 2nd and 3rd instar nymphs on cotton plant, held 6 days, three replicates, read-out: control efficacy: mortality
Protocol: For evaluating control of silverleaf whitefly (Bemisia tabaci), the test unit consisted of a 14-21-day-old cotton plant grown in Redi-earth® media (Scotts Co.) with at least two true leaves infested with 2nd and 3rd instar nymphs on the underside of the leaves.
Test compounds were formulated in no more than 2 mL of acetone and then diluted with water to 25-30 mL. The formulated compounds were applied using a flat fan air-assisted nozzle (Spraying Systems 122440) at 10 psi (69 kPa). Plants were sprayed to run-off on a turntable sprayer (patent publication EP-1110617-A1). All experimental compounds in this screen were sprayed at 250 ppm, and the test was replicated three times. After spraying of the test compound, the test units were held for 6 days in a growth chamber at 50-60% relative humidity and 28° C. daytime and 24° C. nighttime temperature. Then the leaves were removed and then dead and live nymphs were counted to calculate percent mortality.

[6] = system: western flower thrip (Frankliniella occidentalis); test: Test D: control of western flower thrip through contact and/or systemic means on Soleil bean plant; settings: sprayed at 250 ppm; adult thrips on Soleil bean plant; held 6 days at 25° C.; three replicates
Protocol: as §1
For evaluating control of the western flower thrip (Frankliniella occidentalis) through contact and/or systemic means, the test unit consisted of a small open container with a 5-7-day-old Soleil Bean plant inside. […] A mortality rating was assessed along with a plant damage rating for each test unit.

## O=C(NCc1ccc(C2=NOC(c3cc(Cl)cc(Cl)c3)(C(F)(F)F)C2)c2ccccc12)C1CC1 (stereo not shown) [Compound 1, N-[[4-[5-(3,5-dichlorophenyl)-4,5-dihydro-5-(trifluoromethyl)-3-isoxazolyl]-1-naphthalenyl]methyl]cyclopropanecarboxamide]
[1]
  control efficacy (20% or less feeding damage or 80% or more mortality): very good to excellent levels of control efficacy
[2]
  control efficacy (20% or less feeding damage or 80% or more mortality): very good to excellent levels of control efficacy
[3]
  mortality at 250 ppm: ≥ 80%

## CC(C)C(=O)NCc1ccc(C2=NOC(c3cc(Cl)cc(Cl)c3)(C(F)(F)F)C2)c2ccccc12 (stereo not shown) [Compound 2]
[1]
  control efficacy (20% or less feeding damage or 80% or more mortality): very good to excellent levels of control efficacy
[2]
  control efficacy (20% or less feeding damage or 80% or more mortality): very good to excellent levels of control efficacy
[3]
  mortality at 250 ppm: ≥ 80%
[4]
  mortality at 250 ppm: ≥ 80%
[5]
  mortality at 250 ppm: ≥ 80%

## N#CC(NC(=O)C1CC1)c1ccc(C2=NOC(c3cc(Cl)cc(Cl)c3)(C(F)(F)F)C2)c2ccccc12 (stereo not shown) [Compound 3]
[1]
  control efficacy (20% or less feeding damage or 80% or more mortality): very good to excellent levels of control efficacy
[6]
  control efficacy (20% or less feeding damage or 80% or more mortality): very good to excellent levels of control efficacy

## CC(C)C(=O)NC(C)c1ccc(C2=NOC(c3cc(C(F)(F)F)cc(C(F)(F)F)c3)(C(F)(F)F)C2)c2ccccc12 (stereo not shown) [Compound 4]
[1]
  control efficacy (20% or less feeding damage or 80% or more mortality): very good to excellent levels of control efficacy

## CC(C)C(=O)NCc1ccc(C2=NOC(c3cc(Cl)cc(C(F)(F)F)c3)(C(F)(F)F)C2)c2ccccc12 (stereo not shown) [Compound 5]
[1]
  control efficacy (20% or less feeding damage or 80% or more mortality): very good to excellent levels of control efficacy
[2]
  control efficacy (20% or less feeding damage or 80% or more mortality): very good to excellent levels of control efficacy
[3]
  mortality at 250 ppm: ≥ 80%
[4]
  mortality at 250 ppm: ≥ 80%
[5]
  mortality at 250 ppm: ≥ 80%

## O=C(NCc1ccc(C2=NOC(c3cc(Cl)cc(C(F)(F)F)c3)(C(F)(F)F)C2)c2ccccc12)C1CC1 (stereo not shown) [Compound 6]
[1]
  control efficacy (20% or less feeding damage or 80% or more mortality): very good to excellent levels of control efficacy
[2]
  control efficacy (20% or less feeding damage or 80% or more mortality): very good to excellent levels of control efficacy
[3]
  mortality at 250 ppm: ≥ 80%
